This assay deals with Sodium-dependent noradrenaline transporter (Homo sapiens, UniProt P23975). Put plainly: Inhibition of NET (unknown origin) expressed in Jump In T-REx HEK293 cells assessed as decrease in norepinephrine-induced cellular response preincubated for 1 hr followed by norepinephrine stimulation measured for 30 mins by TRACT assay. It counts as cell-based.
Chain of Sodium-dependent noradrenaline transporter (P23975 whole entry): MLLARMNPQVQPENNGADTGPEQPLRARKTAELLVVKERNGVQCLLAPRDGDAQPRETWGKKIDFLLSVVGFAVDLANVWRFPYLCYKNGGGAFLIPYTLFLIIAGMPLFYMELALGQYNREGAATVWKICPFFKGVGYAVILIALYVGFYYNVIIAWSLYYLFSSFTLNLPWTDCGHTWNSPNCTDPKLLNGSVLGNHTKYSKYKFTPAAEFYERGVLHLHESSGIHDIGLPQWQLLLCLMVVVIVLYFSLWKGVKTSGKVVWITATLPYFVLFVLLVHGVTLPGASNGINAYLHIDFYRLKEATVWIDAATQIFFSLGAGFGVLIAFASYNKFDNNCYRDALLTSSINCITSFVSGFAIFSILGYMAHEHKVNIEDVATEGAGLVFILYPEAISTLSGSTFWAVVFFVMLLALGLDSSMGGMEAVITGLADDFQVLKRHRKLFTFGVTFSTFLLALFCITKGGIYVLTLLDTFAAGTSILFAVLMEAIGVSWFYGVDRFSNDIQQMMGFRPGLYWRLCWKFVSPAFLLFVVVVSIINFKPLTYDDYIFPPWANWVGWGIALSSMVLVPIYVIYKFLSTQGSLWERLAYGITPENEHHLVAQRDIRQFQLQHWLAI
What is called IC50 is the concentration that gives 50% inhibition. On to `COC(=O)CCCNC1CCCC1c1ccc(Cl)c(Cl)c1` (configuration not stated), for which the IC50 is 158 nM.

In the case of `OCCNC1CCCC1c1ccc(Cl)c(Cl)c1` (configuration not stated), the IC50 is 79.4 nM.

On to `CCCCNC1CCCC1c1ccc(Cl)c(Cl)c1` (configuration not stated), for which the IC50 was 251 nM.

With `CNCCCCNC1CCCC1c1ccc(Cl)c(Cl)c1` (configuration not stated), the IC50 is 316 nM.

Regarding `OCCCCNC1CCCCC1c1ccc(Cl)c(Cl)c1` (configuration not stated), the IC50 is 501 nM.

With `COCCCCNC1CCCC1c1ccc(Cl)c(Cl)c1` (configuration not stated), the IC50 was 100 nM.

Consider `Clc1ccc(C2CCCC2NCc2ccccc2)cc1Cl` (configuration not stated), for which the IC50 is 631 nM.
